This note sets out measurements from ChEMBL document CHEMBL3526031, “Mechanistic studies on the absorption and disposition of scutellarin in humans: selective OATP2B1-mediated hepatic uptake is a likely key determinant for its unique pharmacokinetic characteristics” (Drug Metab Dispos, 2012).

Data set [1] concerns the target T1, UDP-glucuronosyltransferase 1A8 (Homo sapiens, UniProt Q9HAW9).
T1 sequence (Q9HAW9 whole entry): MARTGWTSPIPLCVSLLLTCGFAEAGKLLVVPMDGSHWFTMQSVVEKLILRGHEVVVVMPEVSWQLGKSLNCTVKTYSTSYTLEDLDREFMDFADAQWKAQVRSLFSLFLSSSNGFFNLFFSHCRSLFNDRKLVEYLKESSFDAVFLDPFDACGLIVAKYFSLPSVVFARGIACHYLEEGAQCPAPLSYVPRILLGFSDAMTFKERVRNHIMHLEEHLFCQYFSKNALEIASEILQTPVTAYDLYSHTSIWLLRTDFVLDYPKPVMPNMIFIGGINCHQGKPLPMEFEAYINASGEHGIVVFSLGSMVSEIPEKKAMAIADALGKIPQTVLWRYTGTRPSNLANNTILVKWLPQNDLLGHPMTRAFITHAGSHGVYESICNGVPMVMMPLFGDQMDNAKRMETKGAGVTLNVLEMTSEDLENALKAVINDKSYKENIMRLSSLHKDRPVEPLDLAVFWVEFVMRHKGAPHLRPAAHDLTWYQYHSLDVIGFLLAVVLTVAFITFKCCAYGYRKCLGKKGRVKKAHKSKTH
As to the kind of experiment: Drug metabolism assessed as human recombinant UGT1A8-mediated formation of scutellarein-6,7-diglucuronide after 25 mins by HPLC/UV analysis. In kind it is ADME. The following applies: recombinant enzyme.

In data set [2] the test system is Homo sapiens. As to the kind of experiment: Drug level in human assessed as retention time treated with 40 mg, po of scutellarin measured up to 20 hrs by mass defect filter chromatogram analysis. Type of data set: ADME, organism-based.

For orientation: Vmax means the top rate of the reaction or transport when substrate is in excess.

On to `O=C(O)[C@H]1O[C@@H](Oc2c(O)cc3oc(-c4ccc(O)cc4)cc(=O)c3c2O)[C@H](O)[C@@H](O)[C@@H]1O`, for which, in data set [1], the Vmax is on record as 0.465 nmol/min/mg. In addition, the Retention_time in data set [2] was 9.19 min.
